PubChem BioAssay (NCI)
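Tested at 5 concentrations; 48 h exposure; 96-well plates; endpoints linearly interpolated, else capped at highest concentration. TGI: concentration producing complete growth inhibition.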

Assays:
Assay in all cases: inhibition of tumour cell growth, NCI panel, 48 h
A549 NSCLC = tested on: A549 NSCLC
DU-145 prostate = tested on: DU-145 prostate
HCC-2998 colon = tested on: HCC-2998 colon
HL-60(TB) leukemia = tested on: HL-60(TB) leukemia
HOP-92 NSCLC = tested on: HOP-92 NSCLC
HS 578T breast = tested on: HS 578T breast
IGROV1 ovarian = tested on: IGROV1 ovarian
NCI/ADR-RES ovarian = tested on: NCI/ADR-RES ovarian
PC-3 prostate = tested on: PC-3 prostate
SN12C renal = tested on: SN12C renal
U251 CNS = tested on: U251 CNS

SMILES | TGI (A549 NSCLC) | TGI (DU-145 prostate) | TGI (HCC-2998 colon) | TGI (HL-60(TB) leukemia) | TGI (HOP-92 NSCLC) | TGI (HS 578T breast) | TGI (IGROV1 ovarian) | TGI (NCI/ADR-RES ovarian) | TGI (PC-3 prostate) | TGI (SN12C renal) | TGI (U251 CNS)
O=c1ccn(CC2(CO)CCCC2)c(=O)[nH]1 | > 100 µM | > 100 µM | > 100 µM | > 100 µM | > 100 µM | > 100 µM | > 100 µM | > 100 µM | > 100 µM | > 100 µM | > 100 µM
COc1cc2nc(Nc3cccc(Br)c3)nc(Nc3cccc(Br)c3)c2cc1OC | 32.6 µM | 34.1 µM | 44.6 µM |  | 29.5 µM | 38.5 µM | 30.1 µM | 37.5 µM | 41.6 µM | 31.4 µM | 35.7 µM
CC(C)(C)n1c(=O)n2n(c1=O)Cc1cccc3cccc(c13)C2 | > 100 µM | > 100 µM | 45.6 µM |  | 69.2 µM | 61.1 µM | 38.5 µM | 37.1 µM | 30.5 µM | 46.3 µM | 33.9 µM
C=CCc1[nH]c2c(OCc3ccccc3)cc(N(CC=C)C(C)=O)cc2c1C | 26.2 µM | 27.8 µM | 28.4 µM | 39.9 µM | 25.7 µM | 30.8 µM | 28 µM | 31 µM | 20.2 µM | 32 µM | 25.3 µM
CCN(CC)C(=O)Cn1c(-c2ccccc2)cc2ccccc21 | > 100 µM | > 100 µM | > 100 µM | > 100 µM | 77.7 µM | > 100 µM | > 100 µM | > 100 µM | > 100 µM | > 100 µM | > 100 µM
COC(=O)CCC(C)[C@H]1CCC2C3C(C[C@H](OC(C)=O)[C@@]21C)[C@@]1(C)CCC2(C[C@H]1C[C@H]3OC(C)=O)OOC1(CCCC1)OO2 (stereo partly specified) | > 100 µM | > 100 µM | > 100 µM | 54.3 µM | 64.8 µM | > 100 µM | 25.4 µM | > 100 µM | > 100 µM | > 100 µM | > 100 µM
CC1(C)CC(=O)C(/C=N/C(N)=S)=C(O)C1 | > 100 µM | > 100 µM | > 100 µM | > 100 µM | > 100 µM | > 100 µM | > 100 µM | > 100 µM | > 100 µM | > 100 µM | > 100 µM
COc1ccc(CC2C3=C(CCN2C(=O)C2CCC2)CC2(CC3)OCCO2)cc1O (stereo unspecified) | > 100 µM | 61.6 µM | > 100 µM | 76.9 µM | > 100 µM | 73.4 µM | > 100 µM | 42.2 µM | > 100 µM | > 100 µM | > 100 µM
CC(=O)C1C(=O)C(=O)N(c2ccccc2)C1=O (stereo unspecified) | > 100 µM | > 100 µM | > 100 µM | > 100 µM | > 100 µM | > 100 µM | > 100 µM | > 100 µM | > 100 µM | > 100 µM | > 100 µM
Cn1c(NNc2ccccc2)cc(=O)[nH]c1=O | > 100 µM | > 100 µM | 97.5 µM | > 100 µM | > 100 µM | > 100 µM | > 100 µM | > 100 µM | > 100 µM | > 100 µM | > 100 µM
O=C1C(C(O)(C(F)(F)Cl)C(F)(F)Cl)CCCC1C(O)(C(F)(F)Cl)C(F)(F)Cl (stereo unspecified) | > 10 µM | > 10 µM | > 10 µM |  | > 10 µM | > 10 µM | > 10 µM | > 10 µM | > 10 µM |  | > 10 µM
Cc1cc(O)c2c(c1O)C(=O)c1cccc(O)c1C2=O | > 100 µM | > 100 µM | > 100 µM | > 100 µM | > 100 µM | > 100 µM | > 100 µM | > 100 µM | > 100 µM | > 100 µM | > 100 µM
C=C1CCCC2[C@](C)(CC3=C(Cl)C(=O)C=C(OC)C3=O)C(C)CC[C@]12C (stereo partly specified) | 11.1 µM | 15.2 µM | 23.9 µM | 10.3 µM | 14.7 µM | 26 µM | 4.76 µM | 33.2 µM | 6.64 µM | 12.5 µM | 11.2 µM
CCOc1ccc2nc3nc(=O)[nH]c(C)c3c(NCCCN(CC)CC)c2c1 | > 100 µM | > 100 µM | > 100 µM | > 100 µM | > 100 µM | > 100 µM | > 100 µM | > 100 µM | > 100 µM | > 100 µM | > 100 µM
Cc1c2ccnc(C(=O)NCCN(C)C)c2cc2c3cc(O)ccc3n(C)c12 | 7.26 µM | 0.771 µM | 2.11 µM | 0.532 µM | 3.59 µM | 4.03 µM | 6.72 µM | 6.64 µM | 2 µM | 2.15 µM | 2.43 µM
